Results: article PMC12518634, “The noncanonical function of liver-type phosphofructokinase potentiates the efficacy of HDAC inhibitors in cancer” (Signal Transduction and Targeted Therapy, 2025)
Where a name gives a salt, the structure may show the parent alone. Read-outs that look alike come from different tables or passages of the source.

What was measured:
1405R3 = test: High-throughput drug screen, CellTiter-Glo viability, 72 h; assay type: cell-based, human; parameters: AUC: scale not given here; conditions: for EC50: fitted dose-response curve, Min.Conc.tested 1, Max.Conc.tested 10000, CellTiter-Glo, read-out: EC50
Experimental: (§1) The cells were seeded and incubated with a gradient of concentrations of drugs for 72 h, after which the cell viability was assessed (Supplementary Fig. 1a). The drug library primarily comprises epigenetic drugs, including HDAC inhibitors, DNA methyltransferase inhibitors, and histone demethylase inhibitors, as well as conventional chemotherapies and kinase inhibitors (Supplementary Fig. 1b and Supplementary Table 1). […] To identify novel therapeutics against CCA, we conducted a high-throughput screen employing PerkinElmer’s integrated robotic Explorer G3 workstations. […] Following dilution to five specified concentrations, drugs were dispensed into 96-well plates in the sequence detailed in Supplementary Fig. 1a. The CCA cell lines were subsequently plated in 384-well plates at a density of 3000 cells per well in a 20 μL total volume. After a 24-h incubation, the compounds were added to the wells and incubated for 72 h. We then quantified cell viability via the CellTiter-Glo luminescent assay according to the manufacturer’s protocol. Signal detection was carried out on a Synergy2 plate reader operated by Gen5 software (BioTek). For data processing, the raw luminescence data were processed through the Breeze pipeline for curve fitting, yielding quality control metrics (e.g., Z-factors) and drug response parameters (AUC and DSS), as adapted from previous work.[54] Drug responses were evaluated on the basis of the drug sensitivity score (DSS), and a cutoff of ≥10 was used to define efficacy. The complete drug library and screening dataset are available in Supplementary Tables 1-3.
(§2) Supplementary Fig. 1. A high-throughput drug screen to identify drugs targeting CCA. a Schematic representation of the drug screening protocol. […] Each drug was tested at five different concentrations (10, 1, 0.1, 0.01, and 0.001 μM), and each treatment was replicated twice. b Classification of drugs used for screening.

783C-6 = test: as above; assay type: cell-based, human; parameters: AUC: scale not given here; conditions: for EC50: read-out: EC50
Experimental: as §1, §2

[1] = 1405R3 DSRT analysis, area under the dose-response curve
[2] = 1405R3 DSRT analysis, lower asymptote of fitted dose-response curve
[3] = 1405R3 DSRT analysis, slope of fitted dose-response curve
[4] = 783C-6 DSRT analysis, DSS calculated from the dose-response curve
[5] = 783C-6 DSRT analysis, MIN of the fitted dose-response curve
[6] = 783C-6 DSRT analysis, area under the dose-response curve
[7] = 783C-6 DSRT analysis, slope of the fitted dose-response curve
[8] = Homo sapiens, 1405R3 DSRT analysis, 72 h
[9] = 783C-6 DSRT analysis, CellTiter-Glo viability, 72 h, fitted dose-response curve, Min.Conc.tested 1, Max.Conc.tested 10000

Row | SMILES | DSS (1405R3; 1405R3 DSRT analysis) | AUC (1405R3; [1]) | MIN (1405R3; [2]) | SLOPE (1405R3; [3]) | DSS (783C-6; [4]) | MIN (783C-6; [5]) | AUC (783C-6; [6]) | SLOPE (783C-6; [7]) | other results
1 | CCC(CC)n1ccc2c(C(=O)NCc3c(C)cc(C)[nH]c3=O)cc(C#N)cc21 [EI1] | 0 | 0.1 | 100 | -0.1 | 0 | 98.2 | 0.7 | -0.8 | –
2 | CC(C)N(CCCNC(=O)Nc1ccc(C(C)(C)C)cc1)C[C@H]1O[C@@H](n2ccc3c(N)ncnc32)[C@H](O)[C@@H]1O [EPZ004777] | 0 | 0.5 | 98.8 | – | 0 | 97.4 | 0.7 | – | –
3 | O=C(NC[C@H](O)CN1CCc2ccccc2C1)c1cc(NC2COC2)ncn1 [EPZ015666] | 0 | 15.4 | 90.1 | – | 0 | 85 | 4.5 | – | –
4 | CNCCN(C)Cc1cn[nH]c1-c1ccc(OC2CC(OCCC3CCOCC3)C2)cc1.Cl (centres unmarked) [EPZ020411 2HCl] | 0 | 0.3 | 97.2 | -2.5 | 0 | 96.5 | 1.7 | -0.6 | –
5 | Nc1ccccc1NC(=O)c1ccc(CNC(=O)OCc2cccnc2)cc1 [Entinostat] | 10 | 87.7 | 5.2 | – | 9.1 | 8.3 | 78 | – | EC50 (1405R3; [8]): 1200 nM; EC50 (783C-6; Homo sapiens, 72 h): 1420 nM
6 | COc1cccc2c1C(=O)c1c(O)c3c(c(O)c1C2=O)C[C@@](O)(C(=O)CO)C[C@@H]3O[C@H]1C[C@H](N)[C@@H](O)[C@H](C)O1 [Epirubicin] | 7.1 | 64.9 | 27.7 | – | 13.9 | 33.9 | 113.1 | – | EC50 (1405R3; [8]): 1310 nM; EC50 (783C-6; Homo sapiens, 72 h): 194 nM
7 | C#Cc1cccc(Nc2ncnc3cc(OCCOC)c(OCCOC)cc23)c1 [Erlotinib HCl] | 0 | 27.3 | 82.4 | – | 0 | 77 | 6.9 | – | –
8 | COc1cc2c(Oc3ccc(NC(=O)C4(C(=O)Nc5ccc(F)cc5)CC4)cc3F)ccnc2cc1OCCCN1CCOCC1 [Foretinib] | 2.9 | 27.8 | 51.5 | – | 4.1 | 32.7 | 37.2 | – | EC50 (1405R3; [8]): 2710 nM; EC50 (783C-6; Homo sapiens, 72 h): 2850 nM
9 | CC[C@H](C)n1cc(C)c2c(C(=O)NCc3c(C)cc(C)[nH]c3=O)cc(-c3ccc(N4CCNCC4)nc3)cc21 [GSK126] | 0 | 22.4 | 85.6 | -0.1 | 0 | 91 | 2.7 | -1 | –
10 | CCCc1cc(C)[nH]c(=O)c1CNC(=O)c1cc(-c2ccnc(N3CCN(C)CC3)c2)cc2c1cnn2C(C)C [GSK343] | 0 | 13.6 | 91.2 | – | 0 | 98.1 | 2.9 | – | –
11 | O=C(CCc1ccc(CN[C@H](C(=O)OC2CCCC2)C2CCCCC2)cn1)NO [GSK3117391] | 8.4 | 74.7 | 7.4 | -1.9 | 7.5 | 4.1 | 65.5 | -2.5 | EC50 (1405R3; 1405R3 DSRT analysis, 72 h): 1580 nM; EC50 (783C-6; [9]): 2090 nM
12 | O=C(O)CCNc1cc(N2CCc3ccccc3CC2)nc(-c2ccccn2)n1 [GSK J1] | 0 | 0.1 | 100 | -0.1 | 0 | 99.9 | 0 | -1.3 | –
13 | CCOC(=O)CCNc1cc(N2CCc3ccccc3CC2)nc(-c2ccccn2)n1 [GSK J4 HCl] | 2.7 | 26.1 | 65 | – | 0 | 70.3 | 8.9 | – | EC50 (1405R3; [8]): 1800 nM
14 | c1ccc([C@@H]2C[C@H]2NC2CCNCC2)cc1 [GSK-LSD1 2HCl] | 0 | – | – | – | – | – | – | – | D1 (1405R3): 104.9; D2 (1405R3): 104.6; D3 (1405R3): 91.3; D4 (1405R3): 100.7; D5 (1405R3): 129.6; MAX (1405R3): 100; MIN (1405R3): 91.3; SLOPE (1405R3): -0.4; AUC (1405R3; 72 h): 5.8; D1 (783C-6): 98.8; D2 (783C-6): 106.9; D3 (783C-6): 94.2; D4 (783C-6): 93.9; D5 (783C-6): 108.3; MAX (783C-6): 100; MIN (783C-6): 93.9; SLOPE (783C-6): -0.3; AUC (783C-6; 72 h): 6; DSS (783C-6; 72 h): 0
15 | COc1cc2ncnc(Nc3ccc(F)c(Cl)c3)c2cc1OCCCN1CCOCC1 [Gefitinib] | 3.6 | 33.5 | 70.6 | – | 2.5 | 77.5 | 27 | – | –
16 | Nc1ccn([C@@H]2O[C@H](CO)[C@@H](O)C2(F)F)c(=O)n1 [Gemcitabine] | 17.6 | 151.9 | 40 | – | 7.6 | 63.5 | 82.5 | – | EC50 (1405R3; [8]): 26.1 nM; EC50 (783C-6; Homo sapiens, 72 h): 40.1 nM
17 | CCN(CC)Cc1ccc2cc(COC(=O)Nc3ccc(C(=O)NO)cc3)ccc2c1 [Givinostat] | 9.2 | 79.9 | 1.5 | – | 9.2 | 1.5 | 81.1 | – | EC50 (1405R3; [8]): 1550 nM; EC50 (783C-6; Homo sapiens, 72 h): 1520 nM
18 | O=C(NO)c1ccc(CC(=O)N(CCO)c2ccccc2)cc1 [HPOB] | 0 | 0.1 | 100 | -0.1 | 0 | 98.7 | 0.4 | -1 | –
19 | CCNC(=O)C[C@@H]1N=C(c2ccc(Cl)cc2)c2cc(OC)ccc2-n2c(C)nnc21 [I-BET-762] | 6 | – | 42 | -2.5 | 0 | 97 | – | -2.5 | –
20 | O=C1[C@H](Cc2ccc(O)cc2)N2C(=O)CCN(C(=O)NCc3ccccc3)[C@H]2CN1Cc1cccc2ccccc12 [ICG-001] | 0 | 0.1 | 100 | -0.1 | 0 | 90.7 | 16.9 | -2.5 | –
21 | C#Cc1cccc(Nc2ncnc3cc4c(cc23)OCCOCCOCCO4)c1 [Icotinib] | 1.4 | 21.6 | 84.3 | – | 0 | 90.4 | 16.8 | – | –
22 | Clc1ccc(N/N=C(\c2ccccc2)c2ccccn2)nc1 [JIB-04] | 8.1 | 73.8 | 34.7 | -1.2 | 4.8 | 18.2 | 43.9 | -2.5 | EC50 (1405R3; 1405R3 DSRT analysis, 72 h): 766 nM; EC50 (783C-6; [9]): 2960 nM
23 | Cc1nn2c([nH]c(=O)c3cccnc32)c1C#N [KDM4D-IN-1] | 0 | 9.3 | 94 | -0.1 | 0 | 93.6 | 0.8 | -2.5 | –
24 | Cc1cn(CCN2CCN(c3ccccc3-c3cc(C#N)cc(C(=O)NCCCN4CCCC4)c3)CC2)c2ccccc12 [LLY-507] | 5.5 | 49.7 | 1.8 | – | 3.9 | 23.1 | 36.6 | – | EC50 (1405R3; [8]): 3190 nM; EC50 (783C-6; Homo sapiens, 72 h): 3430 nM
25 | Cc1cc(C)cc(C(=O)NOCCCCCC(=O)NO)c1 [LMK-235] | 11.6 | 101.6 | 2 | -1.7 | 9.8 | 3.5 | 84.5 | -2.5 | EC50 (1405R3; 1405R3 DSRT analysis, 72 h): 927 nM; EC50 (783C-6; [9]): 1330 nM
26 | CS(=O)(=O)CCNCc1ccc(-c2ccc3ncnc(Nc4ccc(OCc5cccc(F)c5)c(Cl)c4)c3c2)o1 [Lapatinib] | 0 | 0 | 99.9 | – | 0 | 93.5 | 2 | – | –
